Assay results taken from patent US20200071326A1, “TAM KINASE INHIBITORS” (Syros Pharmaceuticals, Inc., priority 2017, published 2020).
Counter-ions that a name gives are not always drawn.

Key:
AXL = target: T1, AXL (Homo sapiens, UniProt P30530); assay: IMAP fluorescence polarization kinase assay, AXL; type: biochemical; settings: ATP 24.7 μM, enzyme 2.5 nM, 240 minutes, read-out: AXL inhibitory constant (Ki)
T1 sequence (P30530 26-894): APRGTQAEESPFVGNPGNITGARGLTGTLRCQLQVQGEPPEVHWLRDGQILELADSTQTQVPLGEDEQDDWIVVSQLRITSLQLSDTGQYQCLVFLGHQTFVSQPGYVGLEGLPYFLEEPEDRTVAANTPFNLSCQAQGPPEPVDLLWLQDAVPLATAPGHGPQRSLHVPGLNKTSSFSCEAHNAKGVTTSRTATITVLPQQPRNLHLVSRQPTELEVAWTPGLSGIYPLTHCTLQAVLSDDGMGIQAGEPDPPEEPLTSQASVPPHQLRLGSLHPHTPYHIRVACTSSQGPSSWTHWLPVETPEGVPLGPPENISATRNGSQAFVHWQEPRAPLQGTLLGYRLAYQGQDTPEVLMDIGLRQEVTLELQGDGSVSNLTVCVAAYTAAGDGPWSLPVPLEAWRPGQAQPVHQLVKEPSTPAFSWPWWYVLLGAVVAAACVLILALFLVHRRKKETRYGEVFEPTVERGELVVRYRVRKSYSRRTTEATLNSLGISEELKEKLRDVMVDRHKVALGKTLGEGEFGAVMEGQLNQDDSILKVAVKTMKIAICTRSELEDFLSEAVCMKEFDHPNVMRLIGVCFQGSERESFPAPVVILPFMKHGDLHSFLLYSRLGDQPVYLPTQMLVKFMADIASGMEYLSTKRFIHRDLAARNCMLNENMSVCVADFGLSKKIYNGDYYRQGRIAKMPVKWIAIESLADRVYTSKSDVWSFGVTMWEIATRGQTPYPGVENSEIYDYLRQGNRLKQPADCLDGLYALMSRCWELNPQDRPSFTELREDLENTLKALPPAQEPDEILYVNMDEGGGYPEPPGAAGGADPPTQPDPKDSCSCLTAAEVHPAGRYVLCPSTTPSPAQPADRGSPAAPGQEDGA
Description: (§1) Activities of compounds against each of TYRO3, AXL, and MERTK as well as against FLT3, were determined using an immobilized metal ion affinity-based fluorescence polarization (“IMAP”) assay. A fluorescently-labeled substrate peptide was phosphorylated in the kinase reaction, after which a binding solution containing large trivalent metal-based nanoparticles was added and the phosphorylated substrate binds to these beads. This reduces the rotational speed of the substrate which is then detected using fluorescence polarization as a read-out.
(§2) The substrates used for each enzyme are as follows: AXL: 5F1-KKKKEEIYFFFG-NH2(SEQ ID NO:1); FLT3: 5F1-KKKKEEIYFFF-NH2 (SEQ ID NO:2); MERTK: 5F1-EFPIYDFLPAKKK-NH2 (SEQ ID NO:3); and TYRO3: 5F1-EFPIYDFLPAKKK-NH2 (SEQ ID NO:4).
(§3) This assay was performed in a 384-well, polystyrene microplate in a final volume of 8 μl. Substrate (final concentration=400 nM), ATP (final concentrations=24.7μM for AXL; 2.74 μM for FLT3; 2.69 μM for MERTK; and 54.0 μM for TYRO3), compounds and enzyme (final concentrations=2.5 nM for AXL, FLT3 and TYRO3; 1.5 nM for MERTK) were pipetted in this order into the appropriate reaction buffer (AXL: 50 mM HEPES, pH 8.0, 1 mM DTT, 10 mM MgCl2, 0.01% BRU35, 0.01% Triton X-100; FLT3: 50 mM HEPES, pH 8.0, 1 mM DTT, 10 mM MgCl2, 0.01% Triton X-100, 0.01% NP40; MERTK/TYRO3: 50 mM HEPES, pH 8.0, 1 mM DTT, 10 mM MgCl2, 0.01% Triton X-100) and incubated at room temperature for varying times (AXL, FLT3 and MERTK: 240 minutes; TYRO3: 60 minutes). IMAP binding solution was then dispensed, the plate incubated for 60 minutes at room temperature and the fluorescence polarization measured. Data were analyzed using XLfit.

FLT3 = target: T2, FLT3 (Homo sapiens, UniProt P36888); assay: IMAP fluorescence polarization kinase assay, FLT3; type: biochemical; settings: ATP 2.74 μM, enzyme 2.5 nM, 240 minutes, read-out: FLT3 inhibitory constant (Ki)
T2 sequence (P36888 27-993): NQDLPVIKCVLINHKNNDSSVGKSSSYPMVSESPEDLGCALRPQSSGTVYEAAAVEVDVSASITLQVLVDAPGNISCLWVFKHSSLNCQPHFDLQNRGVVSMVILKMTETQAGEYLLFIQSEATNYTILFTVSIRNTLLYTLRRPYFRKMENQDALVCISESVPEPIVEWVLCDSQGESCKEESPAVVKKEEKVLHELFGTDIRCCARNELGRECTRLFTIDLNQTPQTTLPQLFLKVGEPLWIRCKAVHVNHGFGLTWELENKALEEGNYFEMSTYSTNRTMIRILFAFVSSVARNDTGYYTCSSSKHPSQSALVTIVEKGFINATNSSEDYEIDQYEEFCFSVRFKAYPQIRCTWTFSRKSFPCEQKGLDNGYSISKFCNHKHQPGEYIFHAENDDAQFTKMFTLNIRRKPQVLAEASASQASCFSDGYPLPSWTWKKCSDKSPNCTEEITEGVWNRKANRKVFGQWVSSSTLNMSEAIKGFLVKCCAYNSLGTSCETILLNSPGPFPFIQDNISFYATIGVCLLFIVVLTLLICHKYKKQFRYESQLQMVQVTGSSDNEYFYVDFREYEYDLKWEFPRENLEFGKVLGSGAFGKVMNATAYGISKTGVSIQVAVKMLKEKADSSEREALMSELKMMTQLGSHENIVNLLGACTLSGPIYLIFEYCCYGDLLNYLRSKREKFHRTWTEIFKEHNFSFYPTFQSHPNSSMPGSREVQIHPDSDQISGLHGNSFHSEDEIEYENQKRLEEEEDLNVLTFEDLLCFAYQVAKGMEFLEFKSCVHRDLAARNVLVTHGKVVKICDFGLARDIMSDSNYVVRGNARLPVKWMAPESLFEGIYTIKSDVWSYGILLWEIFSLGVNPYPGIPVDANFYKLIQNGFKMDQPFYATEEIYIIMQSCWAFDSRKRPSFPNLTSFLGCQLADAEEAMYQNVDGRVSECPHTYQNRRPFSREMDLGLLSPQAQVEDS
Description: as §1, §2, §3

Row | Compound | Ki (AXL) | Ki (FLT3)
1 | C#Cc1cc2c(N[C@H]3CC[C@H](N)CC3)c(C(=O)Nc3ccc(F)cc3)cnc2[nH]1 [Compound 128, [4-1(4-aminocyclohexyl)amino]-2-ethynyl-N-(4-fluorophenyl)-1H-pyrrolo[2,3-b]pyridine-5-carboxamide] | 1000 to 10000 nM | < 100 nM
2 | CC(C)c1cc2c(N[C@H]3CC[C@H](N)CC3)c(C(=O)NCc3ccc(-n4ccnc4)cc3)cnc2[nH]1 [Compound 129] | 100 to 1000 nM | < 100 nM
3 | CCCc1cc2c(N[C@H]3CC[C@H](N)CC3)c(-c3ccc(COC(C)C)cn3)cnc2[nH]1 [Compound 130] | 1000 to 10000 nM | < 100 nM
4 | CCCc1cc2c(N[C@H]3CC[C@H](N)CC3)c(-c3cc(N)ccn3)cnc2[nH]1 [Compound 131] | 1000 to 10000 nM | < 100 nM
5 | CCc1cc2c(N[C@H]3CC[C@H](N)CC3)c(C(=O)NC3CCN(c4ncccn4)CC3)cnc2[nH]1 [Compound 132] | 100 to 1000 nM | < 100 nM
6 | CCCCCc1cc2c(N[C@H]3CC[C@H](N)CC3)c(C(=O)NCc3ccc(-n4ccnc4)cc3)cnc2[nH]1 [Compound 133] | 100 to 1000 nM | 100 to 1000 nM
7 | CCC(C)c1cc2c(N[C@H]3CC[C@H](N)CC3)c(C(=O)Nc3ccc(F)cc3)cnc2[nH]1 (some centres unmarked) [Compound 134] | 1000 to 10000 nM | 100 to 1000 nM
8 | N[C@H]1CC[C@H](Nc2c(C(=O)Nc3ccc(F)cc3)cnc3[nH]c(C(F)(F)F)cc23)CC1 [Compound 135, 4-(((1r,4r)-4-aminocyclohexyl)amino)-N-(4-fluorophenyl)-2-(trifluoromethyl)-1H-pyrrolo[2,3-b]pyridine-5-carboxamide hydrochloride] | 100 to 1000 nM | 100 to 1000 nM
9 | CCc1cc2c(N[C@H]3CC[C@H](N)CC3)c(C(=O)Nc3ccc(F)cc3)cnc2[nH]1 [Compound 136] | 100 to 1000 nM | < 100 nM
10 | CCCC(O)c1cc2c(N[C@H]3CC[C@H](N)CC3)c(Br)cnc2[nH]1 (some centres unmarked) [Compound 137] | 1000 to 10000 nM | 1000 to 10000 nM
11 | N[C@H]1CC[C@H](Nc2c(C(=O)Nc3ccc(F)cc3)cnc3[nH]c(C4CCC4)cc23)CC1 [Compound 138, 4-(((1r,4r)-4-aminocyclohexyl)amino)-2-cyclobutyl-N-(4-fluorophenyl)-1H-pyrrolo[2,3-b]pyridine-5-carboxamide hydrochloride] | 1000 to 10000 nM | < 100 nM
12 | CCCc1cc2c(N[C@H]3CC[C@H](N)CC3)c(C(=O)NC)cnc2[nH]1 [Compound 139] | 100 to 1000 nM | < 100 nM
13 | CCCc1cc2c(N[C@H]3CC[C@H](N)CC3)c(C(=O)OC)cnc2[nH]1 [Compound 140] | 1000 to 10000 nM | < 100 nM
14 | CCCc1cc2c(N[C@H]3CC[C@H](N)CC3)c(C(=O)NC3CCN(c4ncccn4)CC3)cnc2[nH]1 [Compound 141] | 100 to 1000 nM | 100 to 1000 nM
15 | CCCc1cc2c(N[C@H]3CC[C@H](N)CC3)c(Br)cnc2[nH]1 [Compound 142] | 100 to 1000 nM | 100 to 1000 nM
16 | CC(O)c1cc2c(N[C@H]3CC[C@H](O)CC3)c(-c3ccc(CN4CCOCC4)cn3)cnc2[nH]1 (some centres unmarked) [Compound 143] | 1000 to 10000 nM | < 100 nM

Row | Compound | Ki (AXL) | Ki (FLT3)
17 | CCc1cc2c(N[C@H]3CC[C@H](O)CC3)c(-c3ccc(CN4CCOCC4)cn3)cnc2[nH]1 [Compound 144] | 100 to 1000 nM | < 100 nM
18 | COC(C)c1cc2c(N[C@H]3CC[C@H](N)CC3)c(C(=O)Nc3ccc(F)cc3)cnc2[nH]1 (some centres unmarked) [Compound 145] | > 10000 nM | 1000 to 10000 nM
19 | CCC(OC)c1cc2c(N[C@H]3CC[C@H](N)CC3)c(C(=O)Nc3ccc(F)cc3)cnc2[nH]1 (some centres unmarked) [Compound 146] | > 10000 nM | 1000 to 10000 nM
20 | CCC(CC)c1cc2c(N[C@H]3CC[C@H](N)CC3)c(C(=O)Nc3ccc(F)cc3)cnc2[nH]1 [Compound 147] | 1000 to 10000 nM | 1000 to 10000 nM
21 | CC(O)c1cc2c(N[C@H]3CC[C@H](N)CC3)c(C(=O)Nc3ccc(F)cc3)cnc2[nH]1 (some centres unmarked) [Compound 148] | > 10000 nM | 100 to 1000 nM
22 | CCC[C@H](C)c1cc2c(N[C@H]3CC[C@H](N)CC3)c(C(=O)Nc3ccc(F)cc3)cnc2[nH]1 [Compound 149] | 1000 to 10000 nM | 1000 to 10000 nM
23 | CCC[C@@H](C)c1cc2c(N[C@H]3CC[C@H](N)CC3)c(C(=O)Nc3ccc(F)cc3)cnc2[nH]1 [Compound 150] | 1000 to 10000 nM | 1000 to 10000 nM
24 | CCOC(C)c1cc2c(N[C@H]3CC[C@H](N)CC3)c(C(=O)Nc3ccc(F)cc3)cnc2[nH]1 (some centres unmarked) [Compound 152] | > 10000 nM | > 10000 nM
25 | CCCC(OC)c1cc2c(N[C@H]3CC[C@H](N)CC3)c(C(=O)Nc3ccc(F)cc3)cnc2[nH]1 (some centres unmarked) [Compound 153] | > 10000 nM | > 10000 nM
26 | CCCC(O)c1cc2c(N[C@H]3CC[C@H](N)CC3)c(C(=O)Nc3ccc(F)cc3)cnc2[nH]1 (some centres unmarked) [Compound 154] | > 10000 nM | > 10000 nM
27 | COCC(C)c1cc2c(N[C@H]3CC[C@H](N)CC3)c(C(=O)Nc3ccc(F)cc3)cnc2[nH]1 (some centres unmarked) [Compound 155] | > 10000 nM | 1000 to 10000 nM
28 | CC[C@H](C)c1cc2c(N[C@H]3CC[C@H](N)CC3)c(C(=O)Nc3ccc(F)cc3)cnc2[nH]1 [Compound 156] | 1000 to 10000 nM | 100 to 1000 nM
29 | CCC(C)c1cc2c(N[C@H]3CC[C@H](O)CC3)c(C(=O)NC3CCN(c4ncccn4)CC3)cnc2[nH]1 (some centres unmarked) [Compound 157] | > 10000 nM | > 10000 nM
30 | CCC(C)c1cc2c(N[C@H]3CC[C@H](O)CC3)c(C(=O)NC3CCN(C4=NCCCN4)CC3)cnc2[nH]1 (some centres unmarked) [Compound 158] | 1000 to 10000 nM | 100 to 1000 nM
31 | CCC(C)c1cc2c(N[C@H]3CC[C@H](O)CC3)c(-c3ccc(S(=O)(=O)N4CCOCC4)cn3)cnc2[nH]1 (some centres unmarked) [Compound 159] | > 10000 nM | > 10000 nM
